Read-outs that look alike come from different tables or passages of the source.
Key:
Format in all cases: in vivo
[1] = system: wild oat (Avena fatua); assay: Test B postemergence; details: Avena fatua, post-emergence, scale 0 to 100 (0 no effect, 100 complete control), read-out: Oat, Wild plant response rating
Procedure, shortened: (§1)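 Compounds in non-phytotoxic solvent with surfactant applied preemergence to planted seeds or postemergence to plants 2 to 18 cm tall (1- to 4-leaf stage). Greenhouse 13 to 15 days, then visual rating against controls on a 0 to 100 scale (100 = complete control).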

[2] = system: blackgrass (Alopecurus myosuroides); assay: Test B postemergence; details: Alopecurus myosuroides, post-emergence, scale 0 to 100 (0 no effect, 100 complete control), read-out: Blackgrass plant response rating
Procedure, shortened: as §1

[3] = system: morningglory (Ipomoea coccinea); assay: Test B pre/postemergence; details: Ipomoea; for pest or weed control at 62 g/ha: 62 g ai/ha; for pest or weed control at 125 g/ha: 125 g ai/ha
Procedure, shortened: as §1

[4] = system: wheat (Triticum aestivum); assay: Test B pre/postemergence; details: Triticum aestivum, scale 0 to 100 (0 no effect, 100 complete control); for plant injury at 62 g/ha: 62 g ai/ha; for plant injury at 125 g/ha: 125 g ai/ha
Procedure, shortened: as §1

[5] = system: crabgrass (Digitaria sanguinalis); assay: Test B pre/postemergence; details: Digitaria sanguinalis; for pest or weed control at 62 g/ha: 62 g ai/ha; for pest or weed control at 125 g/ha: 125 g ai/ha
Procedure, shortened: as §1

[6] = system: pigweed (Amaranthus retroflexus); assay: Test B pre/postemergence; details: Amaranthus retroflexus; for pest or weed control at 62 g/ha: 62 g ai/ha; for pest or weed control at 125 g/ha: 125 g ai/ha
Procedure, shortened: as §1

[7] = system: lambsquarters (Chenopodium album); assay: Test B pre/postemergence; details: Chenopodium album; for pest or weed control at 62 g/ha: 62 g ai/ha; for pest or weed control at 125 g/ha: 125 g ai/ha
Procedure, shortened: as §1

[8] = system: cocklebur (Xanthium strumarium); assay: Test B pre/postemergence; details: Xanthium strumarium; for pest or weed control at 125 g/ha: 125 g ai/ha, scale 0 to 100 (0 no effect, 100 complete control)
Procedure, shortened: as §1

[9] = system: velvetleaf (Abutilon theophrasti); assay: Test B pre/postemergence; details: Abutilon theophrasti; for pest or weed control at 62 g/ha: 62 g ai/ha; for pest or weed control at 125 g/ha: 125 g ai/ha
Procedure, shortened: as §1

[10] = system: corn (Zea mays); assay: Test B pre/postemergence; details: Zea mays
Procedure, shortened: as §1

[11] = system: giant foxtail (Setaria faberii); assay: Test B pre/postemergence; details: Setaria faberi; for pest or weed control at 125 g/ha: 125 g ai/ha; for pest or weed control at 62 g/ha: 62 g ai/ha
Procedure, shortened: as §1

[12] = system: Surinam grass (Brachiaria decumbens); assay: Test B pre/postemergence; details: Urochloa decumbens; for pest or weed control at 125 g/ha: 125 g ai/ha; for pest or weed control at 62 g/ha: 62 g ai/ha
Procedure, shortened: as §1

[13] = system: barnyardgrass (Echinochloa crus-galli); assay: Test B pre/postemergence; details: Echinochloa crus-galli, scale 0 to 100 (0 no effect, 100 complete control); for pest or weed control at 62 g/ha: 62 g ai/ha; for pest or weed control at 125 g/ha: 125 g ai/ha
Procedure, shortened: as §1

[14] = system: rice (Oryza sativa); assay: Test B flooded paddy test; details: Oryza sativa, Flood, scale 0 to 100, read-out: Plant response rating, Rice
Procedure, shortened: (§2)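 Visual injury scoring (0 = no effect, 100 = complete control) versus controls made 13 to 15 days after treatment in the greenhouse. Test species were grown in flooded paddy to the 2-leaf stage: rice, barnyardgrass, umbrella sedge, duck salad.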

[15] = system: duck salad (Heteranthera limosa); assay: Test B flooded paddy test; details: Heteranthera limosa, Flood, scale 0 to 100, read-out: Plant response rating, Ducksalad
Procedure, shortened: as §2

[16] = system: umbrella sedge (Cyperus difformis); assay: Test B flooded paddy test; details: Cyperus difformis, Flood, scale 0 to 100, read-out: Plant response rating, Sedge, Umbrella
Procedure, shortened: as §2

[17] = system: barnyardgrass (Echinochloa crus-galli); assay: Test B flooded paddy test; details: Echinochloa crus-galli, Flood, scale 0 to 100, read-out: Plant response rating, Barnyardgrass
Procedure, shortened: as §2

[18] = post-emergence, Postemergence, scale 0 to 100 (0 no effect, 100 complete control), read-out: Morningglory plant response rating
[19] = post-emergence, Postemergence, read-out: Wheat plant response rating
[20] = pre-emergence, Preemergence, read-out: Plant response rating, Wheat
[21] = post-emergence, Postemergence, scale 0 to 100 (0 no effect, 100 complete control), read-out: Crabgrass plant response rating
[22] = post-emergence, Postemergence, scale 0 to 100 (0 no effect, 100 complete control), read-out: Pigweed plant response rating
[23] = post-emergence, Postemergence, scale 0 to 100 (0 no effect, 100 complete control), read-out: Lambsquarters plant response rating
[24] = post-emergence, Postemergence, scale 0 to 100 (0 no effect, 100 complete control), read-out: Velvetleaf plant response rating
[25] = post-emergence, Postemergence, scale 0 to 100 (0 no effect, 100 complete control), read-out: Foxtail, Giant plant response rating
[26] = post-emergence, Postemergence, scale 0 to 100 (0 no effect, 100 complete control), read-out: Surinam Grass plant response rating
[27] = post-emergence, Postemergence, read-out: Barnyardgrass plant response rating
[28] = pre-emergence, Preemergence, read-out: Plant response rating, Barnyardgrass

SMILES: CNc1nc(C2CC2)nc(C(=O)OC)c1Cl [Compound 79]
- pest or weed control at 62 g/ha ([1]; 62 g ai/ha): 30%
- pest or weed control at 125 g/ha ([1]; 125 g ai/ha): 40%
- pest or weed control at 62 g/ha ([2]; 62 g ai/ha): 20%
- pest or weed control at 125 g/ha ([2]; 125 g ai/ha): 50%
- pest or weed control at 62 g/ha [3, 18]: 90%
- pest or weed control at 125 g/ha [3, 18]: 100%
- pest or weed control at 62 g/ha ([3]; pre-emergence, Preemergence, scale 0 to 100, 0 no effect, 100 complete control, read-out: Plant response rating, Morningglory): 70%
- pest or weed control at 125 g/ha ([3]; pre-emergence, Preemergence, scale 0 to 100 (0 no effect, 100 complete control), read-out: Plant response rating, Morningglory): 90%
- plant injury at 62 g/ha [4, 19]: 0%
- plant injury at 125 g/ha [4, 19]: 40%
- plant injury at 62 g/ha [4, 20]: 0%
- plant injury at 125 g/ha [4, 20]: 60%
- pest or weed control at 62 g/ha [5, 21]: 30%
- pest or weed control at 125 g/ha [5, 21]: 60%
- pest or weed control at 62 g/ha ([5]; pre-emergence, Preemergence, scale 0 to 100, 0 no effect, 100 complete control, read-out: Plant response rating, Crabgrass): 0%
- pest or weed control at 125 g/ha ([5]; pre-emergence, Preemergence, scale 0 to 100 (0 no effect, 100 complete control), read-out: Plant response rating, Crabgrass): 70%
- pest or weed control at 62 g/ha [6, 22]: 80%
- pest or weed control at 125 g/ha [6, 22]: 100%
- pest or weed control at 62 g/ha ([6]; pre-emergence, Preemergence, scale 0 to 100, 0 no effect, 100 complete control, read-out: Plant response rating, Pigweed): 80%
- pest or weed control at 125 g/ha ([6]; pre-emergence, Preemergence, scale 0 to 100 (0 no effect, 100 complete control), read-out: Plant response rating, Pigweed): 100%
- pest or weed control at 62 g/ha [7, 23]: 90%
- pest or weed control at 125 g/ha [7, 23]: 100%
- pest or weed control at 62 g/ha ([7]; pre-emergence, Preemergence, scale 0 to 100, 0 no effect, 100 complete control, read-out: Plant response rating, Lambsquarters): 90%
- pest or weed control at 125 g/ha ([7]; pre-emergence, Preemergence, scale 0 to 100 (0 no effect, 100 complete control), read-out: Plant response rating, Lambsquarters): 90%
- pest or weed control at 125 g/ha ([8]; post-emergence, Postemergence, read-out: Cocklebur plant response rating): 60%
- pest or weed control at 62 g/ha ([8]; pre-emergence, Preemergence, 62 g ai/ha, scale 0 to 100, 0 no effect, 100 complete control, read-out: Plant response rating, Cocklebur): 50%
- pest or weed control at 125 g/ha ([8]; pre-emergence, Preemergence, read-out: Plant response rating, Cocklebur): 80%
- pest or weed control at 62 g/ha [9, 24]: 50%
- pest or weed control at 125 g/ha [9, 24]: 80%
- pest or weed control at 62 g/ha ([9]; pre-emergence, Preemergence, scale 0 to 100, 0 no effect, 100 complete control, read-out: Plant response rating, Velvetleaf): 50%
- pest or weed control at 125 g/ha ([9]; pre-emergence, Preemergence, scale 0 to 100 (0 no effect, 100 complete control), read-out: Plant response rating, Velvetleaf): 80%
- plant injury at 62 g/ha ([10]; post-emergence, Postemergence, 62 g ai/ha, scale 0 to 100 (0 no effect, 100 complete control), read-out: Corn plant response rating): 20%
- plant injury at 125 g/ha ([10]; post-emergence, Postemergence, 125 g ai/ha, scale 0 to 100 (0 no effect, 100 complete control), read-out: Corn plant response rating): 60%
- Corn plant response rating (crop injury, 0 = no effect, 100 = complete kill) at 62 g/ha ([10]; pre-emergence, Preemergence, 62 g ai/ha, scale 0 to 100, 0 no effect, 100 complete control): 30%
- Corn plant response rating (crop injury, 0 = no effect, 100 = complete kill) at 125 g/ha ([10]; pre-emergence, Preemergence, 125 g ai/ha, scale 0 to 100 (0 no effect, 100 complete control)): 60%
- pest or weed control at 125 g/ha [11, 25]: 70%
- pest or weed control at 62 g/ha [11, 25]: 40%
- pest or weed control at 125 g/ha ([11]; pre-emergence, Preemergence, scale 0 to 100 (0 no effect, 100 complete control), read-out: Plant response rating, Foxtail, Giant): 20%
- pest or weed control at 62 g/ha ([11]; pre-emergence, Preemergence, scale 0 to 100, 0 no effect, 100 complete control, read-out: Plant response rating, Foxtail, Giant): 0%
- pest or weed control at 125 g/ha [12, 26]: 60%
- pest or weed control at 62 g/ha [12, 26]: 20%
- pest or weed control at 125 g/ha ([12]; pre-emergence, Preemergence, scale 0 to 100 (0 no effect, 100 complete control), read-out: Plant response rating, Surinam Grass): 0%
- pest or weed control at 62 g/ha ([12]; pre-emergence, Preemergence, scale 0 to 100, 0 no effect, 100 complete control, read-out: Plant response rating, Surinam Grass): 0%
- pest or weed control at 62 g/ha [13, 27]: 50%
- pest or weed control at 125 g/ha [13, 27]: 80%
- pest or weed control at 62 g/ha [13, 28]: 0%
- pest or weed control at 125 g/ha [13, 28]: 70%
- plant injury at 125 g/ha ([14]; 125 g ai/ha): 0%
- plant injury at 500 g/ha ([14]; 500 g ai/ha): 20%
- pest or weed control at 125 g/ha ([15]; 125 g ai/ha): 10%
- pest or weed control at 500 g/ha ([15]; 500 g ai/ha): 70%
- pest or weed control at 125 g/ha ([16]; 125 g ai/ha): 0%
- pest or weed control at 500 g/ha ([16]; 500 g ai/ha): 0%
- pest or weed control at 125 g/ha ([17]; 125 g ai/ha): 0%
- pest or weed control at 500 g/ha ([17]; 500 g ai/ha): 0%

Reference: patent US8802597B2, “Herbicidal pyrimidines” (E I du Pont de Nemours and Company, priority 2003, dated 2014)
